How the values were obtained:
Format in all cases: in vivo, C57BL/6N male mice
[1] = test system: acute ulcerative colitis model in mice; assay: DSS-induced acute ulcerative colitis mouse model (body weight, DAI, colon length, survival); details: 3% DSS colitis mice, gavage; model group 2.93, blank 0 (FIG. 3C)
Description: In this experiment, DSS was used to construct an acute ulcerative colitis model in mice, and a specific process is shown in FIG. 1. C57BL/6N male mice were placed in an SPF barrier environment for adaptive feeding for one week, while mice with abnormal weight were eliminated. […] From the first day, mice in all groups except the blank group were given drugs by gavage throughout the whole process; from the fourth day, mice in all groups (except the blank group) drank 3% DSS aqueous solution freely for one week; from the tenth day, 3% DSS was replaced with sterile drinking water for experimental mice, and the mice were allowed to recover naturally for one week; on the eighteenth day, the experiment ended and samples were collected from the mice. After the mice were anesthetized, blood was collected from their orbits. After blood collection, the liver, kidney, and spleen tissues of the mice were collected and weighed. The colon tissue from the cecum to the anus of the mice was collected and its length was measured. A 1 cm to 2 cm colon tissue from the anus was fixated in 4% paraformaldehyde solution for histopathological staining. […] During the mouse modeling period, the mouse status was observed daily and the mouse weight was recorded.
The fresh mouse feces were collected and the fecal occult blood was determined according to the instructions of the fecal occult blood assay kit. […]

[2] = test system: colitis-associated colorectal cancer model in mice; assay: AOM/DSS-induced colitis-associated colorectal cancer mouse model (body weight, colon, tumors, serum IL-6)
Procedure: In this experiment, a mouse colitis-associated colorectal cancer model was established using AOM/DSS, and a specific process is shown in FIG. 2. C57BL/6N male mice were placed in an SPF barrier environment for adaptive feeding for one week, while mice with abnormal weight were eliminated. The remaining mice were randomly divided into […], namely: blank group, 3% DSS+normal saline group (a model group), 3% DSS+300 mg/kg mesalazine (a positive drug group), 3% DSS+600 mg/kg hulless barley grass-derived polyphenol crude extract (Example 1), 3% DSS+400 mg/kg hulless barley grass-derived polysaccharide crude extract (Comparative Example 1), 3% DSS+200 mg/kg hulless barley grass-derived lipid crude extract (Comparative Example 2), and 3% DSS+600 mg/kg hulless barley seed-derived polyphenol crude extract (Comparative Example 3). There were ten mice in each group. In the second week, the mice in the model group, positive group, grass polyphenol group, polysaccharide group, lipid group, and seed polyphenol group were intraperitoneally injected with 10 mg/kg AOM. From the third week, the mice drank 3% DSS aqueous solution for one week, and then the DSS aqueous solution was replaced with sterile water for the mice to drink. The experiment ended after six weeks. During the entire experiment, each group of mice was gavaged with medication according to the grouping. The conditions of mice were observed and their weights were recorded each time they were gavaged. At the end of the experiment, all mice were anesthetized, and the colon (from the anus to the cecum), liver, kidney, and spleen tissues of the mice were collected and weighed after dissection. The intestinal contents were gently rinsed with PBS and the length of the mouse colon tissue was measured. The colon was longitudinally cut open with ophthalmic scissors, and the number and size of tumors in the mouse colon were measured with a vernier caliper and recorded. A part of the whole colon of the mouse was taken for the subsequent preparation of colon Swiss rolls, fixated in 4% paraformaldehyde fixative for histopathological analysis, and the remaining tissues were quick-frozen in liquid nitrogen and then transferred to a −80° C. refrigerator for further measurement of qPCR and other experiments.

[3] = test system: colon tissue of colorectal cancer mice; assay: Colon Swiss roll H&E histopathology of colorectal cancer mice; details: AOM/DSS colorectal cancer mice, compared with the model group (FIG. 13)
Procedure: The colon was taken out from the fixative in a fume hood, one end of the colon was gently clamped with ophthalmic forceps, and the entire colon was gently rolled around the forceps in one direction. Be careful not to do it too tight or too loose, otherwise the intestinal villi might fall over or become loose. The Swiss roll was prepared by piercing the edge of the rolled intestine with a fine needle to complete the fixation, and the ophthalmic forceps were removed in the center of the colon. The Swiss roll was placed in an embedding frame and labeled, followed by dehydration and wax immersion, paraffin embedding, paraffin sectioning, dewaxing to water, hematoxylin staining, eosin staining, dehydration and sealing, microscopic examination, and graphic analysis.

TNF-α, IL-6, IL-1β mRNA = assay: qPCR of inflammatory factors in tumor tissue of colorectal cancer mice
Procedure: (§1) The whole colon of a mouse was divided into two major parts, namely the tumor segment and the white-side segment. 20 mg of tumor tissue and white-side tissue were taken from the same mouse for total RNA extraction and reverse transcription reaction. The specific operation was the same as above.
(§2) The experimental data were plotted using GraphPad Prism9.0, and statistical analysis was conducted using one-way ANOVA, where “ns” indicated no significant difference, “*” indicated p<0.05, “**” indicated p<0.01, “***” indicated p<0.001, and “****” indicated p<0.0001. The relative expression of mRNA in qPCR was calculated using the […] method.

COX-2, EGFR, INOS genes = assay: qPCR of COX-2, EGFR and INOS genes in tumor tissue of colorectal cancer mice
Procedure: as §1, §2

intestinal flora = assay: 16S rRNA sequencing of intestinal flora in colorectal cancer mice; details: colorectal cancer mice (FIG. 16D)
Procedure: The mouse feces was collected using a 1.5 mL EP tube, immediately frozen in liquid nitrogen, and stored at −80° C. before sample delivery. 6 samples of mouse colon contents were collected from each group and placed in dry ice for 16S rRNA sequencing by Qingdao Biomarker Technologies Co., LTD.

[4] = AOM/DSS colorectal cancer mice, compared with the model group (FIG. 12C)

Nc1ccc(O)c(C(=O)O)c1 [mesalazine]
disease activity index (DAI) [1]: 2.33
colon weight per unit length (increase in tumor weight caused by modeling) ([2]; AOM/DSS colorectal cancer mice (FIG. 11C)): effectively reduced the increase in tumor weight caused by modeling
proportion of tumors above 3 mm [2, 4]: decreased
proportion of tumors less than 2 mm [2, 4]: increased significantly
proportion of tumors of 2 mm to 3 mm [2, 4]: decreased
body weight when the experiment was over ([2]; AOM/DSS colorectal cancer mice, last day (FIG. 10B)): significant decrease
colon thickness and tumors in pathological sections (H&E) [3]: showed a similar trend
relative expression level of TNF-α mRNA (TNF-α, IL-6, IL-1β mRNA; compared with the model group (FIG. 14A)): significantly reduced
relative expression level of IL-6 mRNA (TNF-α, IL-6, IL-1β mRNA; compared with the model group (FIG. 14B)): significantly reduced
relative expression level of IL-1β mRNA (TNF-α, IL-6, IL-1β mRNA; compared with the model group (FIG. 14C)): significantly reduced
expression level of COX-2 gene (COX-2, EGFR, INOS genes; compared with the model group (FIG. 15A)): significantly downregulated
expression level of EGFR gene (COX-2, EGFR, INOS genes; compared with the model group (FIG. 15B)): significantly downregulated
expression level of INOS gene (COX-2, EGFR, INOS genes; compared with the model group (FIG. 15C)): significantly downregulated
richness and uniformity of the intestinal flora (rank abundance curve) (intestinal flora): closest to those of the blank group
